# Laboratory results taken from patent publication US9429521B2, “Plant phenometrics systems and methods and devices related thereto” (BOARD OF TRUSTEES OF MICHIGAN STATE UNIVERSITY, priority 2012, dated 2016).
# What was measured:
# [1] = test system: Arabidopsis thaliana plants (col-0); test: Discontinuous chlorophyll fluorescence imaging of ΦII with red actinic light after coronatine spraying; assay type: in vivo; details: 5 μM sprayed, monochromatic (red) actinic light, 1, 4, 8 and 24 hours after treatment
# Method: Arabidopsis thaliana plants (col-0) were grown on soil at 22° C. day temperature and 18° C. night temperature, 50% humidity and an intensity of μmol photons m^−2 s^−1 with an 16:8 day:night cycle. Chlorophyll a fluorescence images of steady state (FS) and the fluorescence maximum at steady state (FM′) were collected at growth light intensity and in the absence or presence of saturating illumination, respectively. These images were used to generate images of ΦII, a measure of photosynthetic efficiency on the day of and after treatment (by spraying) with 5 μM coronatine (cor) or water (control). Coronatine is a compound produced by a bacterial plant pathogen. As a chemical analog of jasmonic acid, it elicits a stress response, which includes differential induction and repression of classes of photosynthesis associated genes (PAGs). […] For discontinuous imaging, plants were maintained in the growth chamber where they were treated and transferred to and from the fluorescence imager for measurements. For in situ imaging, the plants were allowed to readjust after transfer to the new chamber with white LED lighting for at least 24 hours prior to treatment and were kept in the chamber for the duration of experiment.
# [2] = test system: Arabidopsis thaliana plants (col-0); test: Continuous in situ chlorophyll fluorescence imaging of ΦII with white actinic LED after coronatine spraying; assay type: in vivo; details: 5 μM sprayed
# Method: Arabidopsis thaliana plants (col-0) were grown on soil at 22° C. day temperature and 18° C. night temperature, 50% humidity and an intensity of μmol photons m^−2 s^−1 with an 16:8 day:night cycle. Chlorophyll a fluorescence images of steady state (FS) and the fluorescence maximum at steady state (FM′) were collected at growth light intensity and in the absence or presence of saturating illumination, respectively. These images were used to generate images of ΦII, a measure of photosynthetic efficiency on the day of and after treatment (by spraying) with 5 μM coronatine (cor) or water (control). Coronatine is a compound produced by a bacterial plant pathogen. As a chemical analog of jasmonic acid, it elicits a stress response, which includes differential induction and repression of classes of photosynthesis associated genes (PAGs). To determine if there were immediate and/or sustained effects on photosynthesis, imaging was performed discontinuously in an imager that used monochromatic (red) actinic light or continuously in situ in a growth chamber outfitted with a white actinic LED imaging system. For discontinuous imaging, plants were maintained in the growth chamber where they were treated and transferred to and from the fluorescence imager for measurements. For in situ imaging, the plants were allowed to readjust after transfer to the new chamber with white LED lighting for at least 24 hours prior to treatment and were kept in the chamber for the duration of experiment.
# Imaging in situ with white LED actinic illumination minimized the stress of moving a plant from its growth environment to the instrument and with automated image capture facilitated collection of data at higher time resolution (FIG. 10). […] The effect is also heterogeneous, more strongly observed in some leaves or not occurring at all in other (younger) leaves.
compound,measurement,setting,value
CC[C@H]1C=C(C(=O)N[C@@]2(C(=O)O)C[C@@H]2CC)[C@H]2CCC(=O)[C@H]2C1 [coronatine],"ΦII (photosynthetic efficiency), treated vs untreated plants",[1],no differences between treated and untreated plants
same,photosynthetic efficiency (ΦII) effect,"[2]; in situ imaging, second day after treatment (more recent studies, not shown)",the effect was not observed
same,photosynthetic efficiency (ΦII),"[2]; white LED in situ imaging, early morning on the day after treatment (21 hours)",large decrease in photosynthetic efficiency
same,photosynthetic efficiency (ΦII) effect,"[2]; white LED in situ imaging, mid-morning on the day after treatment (25 hours)",almost completely disappears
